One series addresses T1, CYP2D6 (Homo sapiens, UniProt P10635).
T1 construct: A system of 100 μL human liver microsomes; from tissue; host or cells: human liver microsomes
The experiment in a line: Direct inhibition (DI) of CYP2D6 in human liver microsomes. It is filed as in vitro ADME. As to conditions: probe Dextromethorphan, human liver microsomes 0.2 mg/mL, 10 μM compound, read-out: Direct inhibition (DI) 2D6 (Dextromethorphan). The protocol:
(§1) Study on Direct Inhibition (DI) of CYP3A4, CYP2D6, CYP2C9, CYP2C19, CYP1A2
(§2) A system of 100 μL human liver microsomes (final concentration: 0.2 mg/mL) was used for direct inhibition under warm incubation. The system contained NADPH (final concentration: 1 mM), 10 μM compound, a positive inhibitor cocktail (Ketoconazole 10 μM, Quinidine: 10 μM, Sulfaphenazole: 100 μM, Naphthoflavone: 10 μM, Tranylcypromene 1000 μM), a negative control 10 μM DMSO and mixed probe substrates (Midazolam 10 μM, Testosterone 100 μM, Dextromethophan 10 μM, Diclofenac 20 μM, Phenetin 100 μM, Mephenytoin 100 μM). The reaction was terminated after incubation for 20 minutes. The relative activity of the enzymes was calculated by measuring the relative production of metabolites.
Background: Microsomes from liver hold many membrane-bound enzymes, among them those of drug oxidation.

The next series concerns the target EGFR kinase (Homo sapiens, UniProt P00533). The series is described as follows: EGFR/ErbB2 enzymatic experiment (HTRF kinEASE-TK), EGFR. It is filed as biochemical. As to conditions: EGFR kinase 0.06 units/μL, ATP 1.65 μM; read-out: Kinase IC50 (nM) in vitro EGFR. The protocol: (§3) EGFR/ErbB2 Enzymatic Experiment
(§4) Firstly, 1× reaction buffer required for the kinase was prepared, then 5× Enzymatic buffer (HEPES 20 mM pH 7.0, NaN3 0.1%, BSA 0.05%, sodium orthovanadate 0.5 mM) was diluted in HTRF kinEASE-TK kit by 1 time with deionized water, and 50 nM Supplement Enzymatic buffer (SEB REAGENT), 1 mM MnCl2, 5 mM MfCl2, 1 mM DTT were added. Secondly, 5× compound was prepared, and 10 mM test compound storage solution was diluted in multiple steps with DMSO in a 96-well compound plate to prepare 100× compound as an initial concentration, which was then used as the first concentration to carry out a 3-fold gradient dilution with DMSO to obtain a total of 10 concentrations. Then 1 μL of gradient diluent was added to 19 μL of 1× reaction buffer to prepare 5× compound for later use. Then 2 μL of 5× compound was transferred from the 96-well plate into a 384-well plate. To the compound-free control wells was added 2 μL of the following liquid: 19 μL of 1× reaction buffer with addition of 1 μL of DMSO. To the blank control well was added 2 μL of 250 mM EDTA. […] In the fourth step of reaction termination, HTRF Detection buffer was used to prepare a mixture of 2×TK Antibody-EU (K) and Sa-XL665, and the amount of TK Antibody-EU (K) was 5 μL per well. After the enzyme reaction was carried out for 30 minutes, 10 μL of the above liquid was added to a 384-well plate, and the reaction was carried out at room temperature for 1 hour. […] RFU665 nM and RFU620 nM were measured, and RFU665 nM/RFU620 nM×10000 was used as final data for analysis.
Background: Time-resolved FRET reads energy transfer from a long-lived donor to a nearby acceptor.

The next series deals with T2, CYP2C19 (Homo sapiens, UniProt P33261).
T2 construct: A system of 100 μL human liver microsomes; from tissue; host or cells: human liver microsomes
The experiment in a line: Direct inhibition (DI) of CYP2C19 in human liver microsomes. It is filed as in vitro ADME. As to conditions: probe Mephenytoin, human liver microsomes 0.2 mg/mL, 10 μM compound, read-out: Direct inhibition (DI) 2C19 (Mephenytoin). The protocol: as §1, §2

A further series addresses T3, CYP2C9 (Homo sapiens, UniProt P11712).
T3 construct: A system of 100 μL human liver microsomes; from tissue; host or cells: human liver microsomes
The experiment in a line: Direct inhibition (DI) of CYP2C9 in human liver microsomes. In kind it is in vitro ADME. As to conditions: probe Diclofenac, human liver microsomes 0.2 mg/mL, 10 μM compound, read-out: Direct inhibition (DI) 2C9 (Diclofenac). The protocol:
as §1, §2

The test system of series [1] is BT-474 (human breast cancer cell). The series is described as follows: In vitro proliferation inhibition assay of cell lines (CellTiter-Glo), BT-474. It is filed as cell-based. As to conditions: BT-474 cells, 72 hours. The protocol:
(§5) In Vitro Proliferation Inhibition Assay of Cell Lines
1. […] 2. Dosing to the cells: on the second day of the experiment, the microplate was taken out from the incubator, and 10 μL of 10× compound was added to each well of the microplate, setting 2 duplicate wells for each drug concentration and 9 dosing concentrations for each compound. According to different cell lines, the initial concentration of each compound was different. Upon completion of addition, the microplate was placed under the conditions of 37° C. and 5% CO2 for 72 hours. 3. Data acquisition: the microplate was taken out from the incubator and was allowed to equilibrate at room temperature for 30 minutes. 100 μL of CellTiter-Glo® Luminescent Cell Viability Assay reaction solution which had been equilibrated at room temperature was added to each well, and the reaction solution was shaken at 1300 rpm for 2 minutes at room temperature. After that, the microplate was placed in HERAEUS Multifuge X1R centrifuge, centrifuged at 2000 rpm for 1 minute, and allowed to equilibrate at room temperature for 10 minutes. The fluorescence signal value was measured on EnVision™.

A further series concerns the target T4, CYP1A2 (Homo sapiens, UniProt P05177).
T4 construct: A system of 100 μL human liver microsomes; from tissue; host or cells: human liver microsomes
T4 sequence (P05177 1-516): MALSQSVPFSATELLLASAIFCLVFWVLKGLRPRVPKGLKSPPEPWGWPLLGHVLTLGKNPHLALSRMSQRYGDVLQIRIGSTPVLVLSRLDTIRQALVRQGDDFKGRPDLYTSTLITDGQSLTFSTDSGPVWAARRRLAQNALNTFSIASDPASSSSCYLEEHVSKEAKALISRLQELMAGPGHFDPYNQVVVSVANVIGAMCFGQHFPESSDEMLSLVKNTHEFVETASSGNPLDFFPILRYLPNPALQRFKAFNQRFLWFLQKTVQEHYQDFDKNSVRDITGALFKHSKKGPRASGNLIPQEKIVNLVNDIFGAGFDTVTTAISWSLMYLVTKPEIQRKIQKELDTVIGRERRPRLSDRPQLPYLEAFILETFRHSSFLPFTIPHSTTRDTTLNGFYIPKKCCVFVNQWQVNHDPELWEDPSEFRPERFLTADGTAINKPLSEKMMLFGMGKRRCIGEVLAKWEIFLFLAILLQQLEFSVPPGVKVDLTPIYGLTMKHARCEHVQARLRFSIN
The experiment in a line: Direct inhibition (DI) of CYP1A2 in human liver microsomes. It is filed as in vitro ADME. As to conditions: probe Phenacetin, human liver microsomes 0.2 mg/mL, 10 μM compound, read-out: Direct inhibition (DI) 1A2 (Phenacetin). The protocol: as §1, §2

A further series has as its target T5, CYP3A4 (Homo sapiens, UniProt P08684).
T5 construct: A system of 100 μL human liver microsomes; from tissue; host or cells: human liver microsomes
The experiment in a line: Direct inhibition (DI) of CYP3A4 in human liver microsomes. It is filed as in vitro ADME. As to conditions: human liver microsomes 0.2 mg/mL, 10 μM compound. The protocol: as §1, §2

In another series the target is T6, ErbB2 kinase (Homo sapiens, UniProt P04626).
T6 construct: The final concentration of ErbB2 kinase was 0.06 ng/μL
The experiment in a line: EGFR/ErbB2 enzymatic experiment (HTRF kinEASE-TK), ErbB2. It is filed as biochemical. As to conditions: ErbB2 kinase 0.06 ng/μL, ATP 4 μM; read-out: Kinase IC50 (nM) in vitro ErbB2. The protocol:
as §3, §4

Series [2] has as its system N87 (human gastric cancer cell NCI-N87). The experiment in a line: In vitro proliferation inhibition assay of cell lines (CellTiter-Glo), N87. As to conditions: N87 cells, 72 hours. It is filed as cell-based. The protocol: as §5
1. Cell culture and inoculation: on the first day of the experiment, normal cultured cells were taken, and in the exponential growth state, after digestion and dispersion, the cell density was then adjusted to 8.8×10^4 cells/mL for BT-474, and 6.6×10^4 cells/mL for N87, and 90 μL of which were inoculated to each well of a 96-well cell culture plate; after the inoculation was completed, the microplate was cultured under the conditions of 37° C. and 5% CO2 overnight. 2. Dosing to the cells: on the second day of the experiment, the microplate was taken out from the incubator, and 10 μL of 10× compound was added to each well of the microplate, setting 2 duplicate wells for each drug concentration and 9 dosing concentrations for each compound. According to different cell lines, the initial concentration of each compound was different. Upon completion of addition, the microplate was placed under the conditions of 37° C. and 5% CO2 for 72 hours. 3. Data acquisition: the microplate was taken out from the incubator and was allowed to equilibrate at room temperature for 30 minutes. 100 μL of CellTiter-Glo® Luminescent Cell Viability Assay reaction solution which had been equilibrated at room temperature was added to each well, and the reaction solution was shaken at 1300 rpm for 2 minutes at room temperature. After that, the microplate was placed in HERAEUS Multifuge X1R centrifuge, centrifuged at 2000 rpm for 1 minute, and allowed to equilibrate at room temperature for 10 minutes. The fluorescence signal value was measured on EnVision™.
In general terms: In ATP-based viability assays light output follows the ATP content of the culture.

Setting [3] is: probe Midazolam, read-out: Direct inhibition (DI) 3A4 (Midazolam).
Setting [4] is: probe Testosterone, read-out: Direct inhibition (DI) 3A4 (testosterone).

We go through 6 compounds from patent publication US11578074B2, “Nitrogenous heterocyclic compound, preparation method, intermediate, composition, and application” (SHANGHAI PHARMACEUTICALS HOLDING CO., LTD., priority 2017, dated 2023).

Where two headings read alike, the source gives them in different places.

T3 sequence (P11712 whole entry): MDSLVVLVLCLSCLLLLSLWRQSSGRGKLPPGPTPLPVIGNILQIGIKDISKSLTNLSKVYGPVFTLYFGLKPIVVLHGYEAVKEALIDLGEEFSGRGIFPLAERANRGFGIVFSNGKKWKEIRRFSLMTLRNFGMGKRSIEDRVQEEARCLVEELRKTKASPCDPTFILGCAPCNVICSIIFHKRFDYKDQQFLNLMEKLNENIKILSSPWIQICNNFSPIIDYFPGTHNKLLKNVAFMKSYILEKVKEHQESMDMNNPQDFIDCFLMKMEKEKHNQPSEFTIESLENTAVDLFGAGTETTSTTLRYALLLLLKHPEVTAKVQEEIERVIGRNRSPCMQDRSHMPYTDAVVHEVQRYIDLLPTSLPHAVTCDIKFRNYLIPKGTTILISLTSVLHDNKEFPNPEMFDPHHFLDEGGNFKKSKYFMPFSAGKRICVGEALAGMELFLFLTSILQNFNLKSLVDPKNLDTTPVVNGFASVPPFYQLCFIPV
Sequence of EGFR kinase (P00533 25-1210): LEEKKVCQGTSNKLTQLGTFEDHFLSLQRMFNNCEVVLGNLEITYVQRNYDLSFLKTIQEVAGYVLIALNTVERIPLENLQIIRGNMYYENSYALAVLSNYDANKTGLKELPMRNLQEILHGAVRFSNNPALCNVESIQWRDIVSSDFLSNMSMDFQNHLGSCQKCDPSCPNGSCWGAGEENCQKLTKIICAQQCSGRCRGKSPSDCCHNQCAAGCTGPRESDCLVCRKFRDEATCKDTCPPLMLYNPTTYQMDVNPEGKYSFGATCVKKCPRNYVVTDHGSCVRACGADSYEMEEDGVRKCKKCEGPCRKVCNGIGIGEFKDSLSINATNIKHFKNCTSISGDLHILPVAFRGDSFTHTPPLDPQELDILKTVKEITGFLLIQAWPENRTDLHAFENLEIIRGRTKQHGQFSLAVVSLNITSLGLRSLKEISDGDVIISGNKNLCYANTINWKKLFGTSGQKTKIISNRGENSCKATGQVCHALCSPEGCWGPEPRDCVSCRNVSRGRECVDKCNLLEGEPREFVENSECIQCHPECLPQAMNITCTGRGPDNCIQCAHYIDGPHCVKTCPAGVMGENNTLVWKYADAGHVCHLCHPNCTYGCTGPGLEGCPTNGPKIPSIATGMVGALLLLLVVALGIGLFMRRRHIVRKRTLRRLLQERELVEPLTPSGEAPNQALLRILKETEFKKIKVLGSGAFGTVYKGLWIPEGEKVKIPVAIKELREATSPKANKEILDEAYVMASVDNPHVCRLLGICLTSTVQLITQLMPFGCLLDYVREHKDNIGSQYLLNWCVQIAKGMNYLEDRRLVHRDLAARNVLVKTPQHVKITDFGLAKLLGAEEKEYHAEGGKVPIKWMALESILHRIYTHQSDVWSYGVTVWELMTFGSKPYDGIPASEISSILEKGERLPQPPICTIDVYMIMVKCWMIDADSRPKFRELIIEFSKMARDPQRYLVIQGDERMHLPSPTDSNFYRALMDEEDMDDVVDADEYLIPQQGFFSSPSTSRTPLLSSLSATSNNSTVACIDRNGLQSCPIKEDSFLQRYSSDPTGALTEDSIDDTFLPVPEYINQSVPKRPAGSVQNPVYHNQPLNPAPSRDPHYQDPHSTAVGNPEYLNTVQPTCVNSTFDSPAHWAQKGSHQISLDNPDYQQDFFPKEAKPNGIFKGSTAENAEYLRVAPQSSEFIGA
T5 sequence (P08684 whole entry): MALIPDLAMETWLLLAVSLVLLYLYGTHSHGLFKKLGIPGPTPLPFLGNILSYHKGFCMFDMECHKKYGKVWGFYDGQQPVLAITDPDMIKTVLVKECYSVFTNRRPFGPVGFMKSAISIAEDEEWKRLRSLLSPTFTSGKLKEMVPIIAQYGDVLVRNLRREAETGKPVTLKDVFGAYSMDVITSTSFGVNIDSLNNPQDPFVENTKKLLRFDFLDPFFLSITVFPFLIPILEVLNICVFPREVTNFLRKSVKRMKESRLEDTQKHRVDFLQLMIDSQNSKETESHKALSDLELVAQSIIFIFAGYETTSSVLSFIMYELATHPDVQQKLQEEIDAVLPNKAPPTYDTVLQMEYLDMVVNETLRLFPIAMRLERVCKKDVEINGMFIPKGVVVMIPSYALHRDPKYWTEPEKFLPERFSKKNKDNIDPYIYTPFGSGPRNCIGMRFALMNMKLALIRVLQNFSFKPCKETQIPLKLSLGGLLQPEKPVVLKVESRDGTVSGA
T2 sequence (P33261 whole entry): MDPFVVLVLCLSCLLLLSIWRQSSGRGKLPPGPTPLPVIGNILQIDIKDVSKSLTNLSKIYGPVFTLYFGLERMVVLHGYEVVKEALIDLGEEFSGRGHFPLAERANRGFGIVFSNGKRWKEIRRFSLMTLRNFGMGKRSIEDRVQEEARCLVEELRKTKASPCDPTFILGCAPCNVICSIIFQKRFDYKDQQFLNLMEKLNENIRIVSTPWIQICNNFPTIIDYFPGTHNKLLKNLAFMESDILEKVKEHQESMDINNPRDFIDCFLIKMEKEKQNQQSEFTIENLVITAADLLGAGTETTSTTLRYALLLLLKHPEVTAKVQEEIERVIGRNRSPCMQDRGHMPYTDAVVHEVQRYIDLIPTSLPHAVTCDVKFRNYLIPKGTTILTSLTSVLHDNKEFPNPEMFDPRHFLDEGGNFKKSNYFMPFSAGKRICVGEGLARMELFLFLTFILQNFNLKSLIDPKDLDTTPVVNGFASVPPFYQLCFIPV
T1 sequence (P10635 whole entry): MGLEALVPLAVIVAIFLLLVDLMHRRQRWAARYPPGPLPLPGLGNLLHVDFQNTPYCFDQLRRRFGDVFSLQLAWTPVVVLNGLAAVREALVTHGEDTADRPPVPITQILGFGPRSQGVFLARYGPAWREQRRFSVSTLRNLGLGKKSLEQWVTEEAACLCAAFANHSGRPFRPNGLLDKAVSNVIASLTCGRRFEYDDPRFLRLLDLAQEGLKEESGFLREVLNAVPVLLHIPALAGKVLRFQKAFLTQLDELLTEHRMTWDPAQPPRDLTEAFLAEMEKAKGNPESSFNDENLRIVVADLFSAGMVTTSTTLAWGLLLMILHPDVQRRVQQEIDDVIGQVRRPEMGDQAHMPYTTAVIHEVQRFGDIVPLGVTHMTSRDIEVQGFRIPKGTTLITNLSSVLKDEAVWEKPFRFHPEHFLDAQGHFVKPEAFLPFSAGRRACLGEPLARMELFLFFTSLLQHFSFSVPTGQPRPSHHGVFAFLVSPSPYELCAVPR
T6 sequence (P04626 23-1255): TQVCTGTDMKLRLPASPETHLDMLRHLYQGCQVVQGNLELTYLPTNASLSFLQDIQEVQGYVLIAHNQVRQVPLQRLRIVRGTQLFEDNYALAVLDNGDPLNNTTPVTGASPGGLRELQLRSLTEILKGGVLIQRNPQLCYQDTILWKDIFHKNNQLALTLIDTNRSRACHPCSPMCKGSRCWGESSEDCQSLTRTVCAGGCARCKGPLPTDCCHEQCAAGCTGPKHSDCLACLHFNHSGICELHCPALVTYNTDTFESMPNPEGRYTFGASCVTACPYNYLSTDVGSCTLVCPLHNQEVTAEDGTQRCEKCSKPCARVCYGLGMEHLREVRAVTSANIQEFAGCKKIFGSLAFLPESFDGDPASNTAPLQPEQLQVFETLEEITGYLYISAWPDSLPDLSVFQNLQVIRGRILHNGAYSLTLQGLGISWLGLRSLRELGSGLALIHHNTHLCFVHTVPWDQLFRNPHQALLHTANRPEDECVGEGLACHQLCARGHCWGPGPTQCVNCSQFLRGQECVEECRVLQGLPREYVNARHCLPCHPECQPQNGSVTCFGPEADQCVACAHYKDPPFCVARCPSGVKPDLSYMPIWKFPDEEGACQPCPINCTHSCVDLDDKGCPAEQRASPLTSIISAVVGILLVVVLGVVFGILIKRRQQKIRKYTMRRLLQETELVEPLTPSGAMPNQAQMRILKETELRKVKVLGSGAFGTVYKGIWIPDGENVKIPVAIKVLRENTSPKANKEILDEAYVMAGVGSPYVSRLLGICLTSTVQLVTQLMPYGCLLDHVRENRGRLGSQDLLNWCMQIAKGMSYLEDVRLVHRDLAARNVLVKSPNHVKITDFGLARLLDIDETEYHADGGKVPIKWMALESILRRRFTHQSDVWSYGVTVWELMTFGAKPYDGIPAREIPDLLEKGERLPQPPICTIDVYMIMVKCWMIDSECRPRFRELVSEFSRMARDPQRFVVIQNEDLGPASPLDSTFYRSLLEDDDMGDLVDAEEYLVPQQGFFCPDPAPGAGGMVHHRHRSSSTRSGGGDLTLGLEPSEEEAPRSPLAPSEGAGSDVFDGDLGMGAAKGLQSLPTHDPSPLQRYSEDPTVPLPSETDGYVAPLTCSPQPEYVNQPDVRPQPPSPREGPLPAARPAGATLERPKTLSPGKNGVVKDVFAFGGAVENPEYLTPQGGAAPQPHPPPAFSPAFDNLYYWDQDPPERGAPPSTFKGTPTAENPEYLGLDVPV

With `Cc1cc(Nc2ncnc3ccc(NC(=O)/C=C/[C@H]4CCCN4C)cc23)ccc1Oc1ccc2nccn2n1` [Final product of Embodiment 10], the inhibition (as a rule, the change of the read-out against control, counted positive when it falls) at 20 min, 10 µM is 46% on CYP2D6; 9% at CYP2C19; < 0% at CYP2C9; 14% at CYP1A2; 12% on CYP3A4 (setting [3]); 29% on CYP3A4 (setting [4]). The IC50 (as a rule, the point on the concentration scale where inhibition reaches its midpoint) is 4.62 nM at EGFR kinase, 4.56 nM in [1], 1.34 nM at ErbB2 kinase and 3.52 nM in [2].

Regarding `CCOc1cc2ncc(C#N)c(Nc3ccc(Oc4cc5nncn5cn4)c(C)c3)c2cc1NC(=O)/C=C/[C@H]1CCCN1` [Final product of Embodiment 32], the inhibition at 20 min, 10 µM is 6% at CYP2D6; 75% on CYP2C19; 66% at CYP2C9; < 0% on CYP1A2; 8% on CYP3A4 (setting [3]); 11% at CYP3A4 (setting [4]). In addition, the IC50 came out at 1.06 nM on EGFR kinase, 4 nM in series [1], 3.13 nM on ErbB2 kinase and 4.2 nM in series [2].

`CCOc1cc2ncnc(Nc3ccc(Oc4ccn5ncnc5c4)c(C)c3)c2cc1NC(=O)/C=C/[C@H]1CCCN1` [Final product of Embodiment 38, (R,E)-N-(4-((4-([1,2,4]triazolo[1,5-a]pyridin-7-yloxy)-3-methylphenyl)amino)-7-ethoxyquinazolin-6-yl)-3-(pyrrolidin-2-yl)acrylamide]: the inhibition at 20 min, 10 µM on CYP2D6 was 24%; on CYP2C19 it was 45%; on CYP2C9 it was 10%; on CYP1A2, < 0%; on CYP3A4 (setting [3]) it was 5%; on CYP3A4 (setting [4]) it was 16%. In addition, the IC50 on EGFR kinase was found to be 0.6 nM; in series [1], 2.8 nM; on ErbB2 kinase, 0.5 nM; in [2], 2.4 nM.

Consider `CN1CCC[C@@H]1/C=C/C(=O)Nc1ccc2ncnc(Nc3ccc(Oc4ccn5ncnc5c4)c(Cl)c3)c2c1` [Final product of Embodiment 26, (R,E)-N-(4-((4-([1,2,4]triazolo[1,5-a]pyridin-7-yloxy)-3-chlorophenyl)amino)quinazolin-6-yl)-3-(1-methylpyrrolidin-2-yl)acrylamide], for which the inhibition at 20 min, 10 µM on CYP2D6 was 85%; on CYP2C19, 28%; on CYP2C9 it was 19%; on CYP1A2 it was 2%; at CYP3A4 (setting [3]) it was < 0%; on CYP3A4 (setting [4]), 5%. The IC50 was 2.52 nM at EGFR kinase, 5.23 nM in series [1], 0.83 nM at ErbB2 kinase and 3.55 nM in [2].

For the compound `CCOc1cc2ncnc(Nc3ccc(Oc4ccn5ncnc5c4)c(C)c3)c2cc1NC(=O)/C(F)=C\[C@@H]1CCCN1C`, the inhibition at 20 min, 10 µM on CYP2D6 turned out to be 38%; at CYP2C19 it was 43%; at CYP2C9 it was 21%; at CYP1A2, 23%; at CYP3A4 (setting [3]), 14%; at CYP3A4 (setting [4]), 32%. The IC50 amounted to 50.9 nM at EGFR kinase, 5.9 nM in [1], 4.6 nM at ErbB2 kinase and 3.1 nM in series [2].

As for `C=C(F)C(=O)N1CC=C(c2ccc3ncnc(Nc4ccc(Oc5cc6nncn6cn5)c(C)c4)c3c2)CC1` [Final product of Embodiment 6, 1-(4-(4-((4-([1,2,4]triazolo[4,3-c]pyrimidin-7-yloxy)-3-methylphenyl)amino)quinazolin-6-yl)-5,6-dihydropyridin-1(2H)-yl)-2-fluoropropyl-2-en-1-one], the inhibition at 20 min, 10 µM on CYP2D6 turned out to be 30%; on CYP2C19, 41%; on CYP2C9 it was 55%; on CYP1A2 it was 13%; at CYP3A4 (setting [3]), 72%; at CYP3A4 (setting [4]), 80%. The 50% inhibitory concentration (IC50) came to 233 nM on EGFR kinase, 16.1 nM in series [1], 2.92 nM at ErbB2 kinase and 24 nM in series [2].
